PubChem BioAssay (NCI)
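Tested at 5 concentrations; 48 h exposure; 96-well plates; endpoints linearly interpolated, else capped at highest concentration. Here, GI50 denotes the concentration required for 50% inhibition of growth. TGI denotes the concentration required for complete inhibition of growth.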

Columns and labels:
Assay in all cases: DTP human tumour cell line panel, 48 h
PC-3 prostate = test system: PC-3 prostate
OVCAR-8 ovarian = test system: OVCAR-8 ovarian
786-0 renal = test system: 786-0 renal
RPMI-8226 leukemia = test system: RPMI-8226 leukemia
UACC-257 melanoma = test system: UACC-257 melanoma
SK-MEL-5 melanoma = test system: SK-MEL-5 melanoma
SNB-75 CNS = test system: SNB-75 CNS
ACHN renal = test system: ACHN renal
HOP-62 NSCLC = test system: HOP-62 NSCLC
OVCAR-5 ovarian = test system: OVCAR-5 ovarian
DU-145 prostate = test system: DU-145 prostate
IGROV1 ovarian = test system: IGROV1 ovarian
SW-620 colon = test system: SW-620 colon
SF-539 CNS = test system: SF-539 CNS
MCF7 breast = test system: MCF7 breast
OVCAR-4 ovarian = test system: OVCAR-4 ovarian
A549 NSCLC = test system: A549 NSCLC
HT29 colon = test system: HT29 colon
MDA-MB-231 breast = test system: MDA-MB-231 breast
SR leukemia = test system: SR leukemia
M14 melanoma = test system: M14 melanoma
HCC-2998 colon = test system: HCC-2998 colon
HCT-116 colon = test system: HCT-116 colon
T-47D breast = test system: T-47D breast
SF-295 CNS = test system: SF-295 CNS
NCI-H460 lung = test system: NCI-H460 lung
BT-549 breast = test system: BT-549 breast
A498 renal = test system: A498 renal
NCI-H226 lung = test system: NCI-H226 lung
CCRF-CEM leukemia = test system: CCRF-CEM leukemia
SK-OV-3 ovarian = test system: SK-OV-3 ovarian
SF-268 CNS = test system: SF-268 CNS
COLO 205 colon = test system: COLO 205 colon
NCI-H23 lung = test system: NCI-H23 lung
RXF 393 renal = test system: RXF 393 renal
HS 578T breast = test system: HS 578T breast
HL-60(TB) leukemia = test system: HL-60(TB) leukemia
MALME-3M melanoma = test system: MALME-3M melanoma
SNB-19 CNS = test system: SNB-19 CNS
LOX IMVI melanoma = test system: LOX IMVI melanoma
UO-31 renal = test system: UO-31 renal
SN12C renal = test system: SN12C renal
OVCAR-3 ovarian = test system: OVCAR-3 ovarian
TK-10 renal = test system: TK-10 renal
SK-MEL-2 melanoma = test system: SK-MEL-2 melanoma
UACC-62 melanoma = test system: UACC-62 melanoma
NCI/ADR-RES ovarian = test system: NCI/ADR-RES ovarian
MDA-MB-435 = test system: MDA-MB-435
MOLT-4 leukemia = test system: MOLT-4 leukemia
K-562 leukemia = test system: K-562 leukemia
EKVX NSCLC = test system: EKVX NSCLC
U251 CNS = test system: U251 CNS
HCT-15 colon = test system: HCT-15 colon
NCI-H522 lung = test system: NCI-H522 lung
CAKI-1 renal = test system: CAKI-1 renal
KM12 colon = test system: KM12 colon

## COc1ccc2c(c1)N(CCO)C1=C(C(=O)OC1)C2c1cccc(Br)c1 (configuration not stated)
PC-3 prostate
  GI50: 61.8 nM
  TGI: 54400 nM
OVCAR-8 ovarian
  GI50: 140 nM
  TGI: 13900 nM
786-0 renal
  GI50: 120 nM
  TGI: 41400 nM
RPMI-8226 leukemia
  GI50: 184 nM
  TGI: 28400 nM
UACC-257 melanoma
  GI50: 34 nM
  TGI: 40700 nM
SK-MEL-5 melanoma
  GI50: 40.7 nM
  TGI: 585 nM
SNB-75 CNS
  GI50: 64.7 nM
  TGI: > 100000 nM
ACHN renal
  GI50: 82.4 nM
  TGI: > 100000 nM
HOP-62 NSCLC
  GI50: 132 nM
  TGI: > 76300 nM
OVCAR-5 ovarian
  GI50: 466 nM
  TGI: > 100000 nM
DU-145 prostate
  GI50: 156 nM
  TGI: 1150 nM
IGROV1 ovarian
  GI50: 88 nM
  TGI: > 100000 nM
SW-620 colon
  GI50: 46 nM
  TGI: > 100000 nM
SF-539 CNS
  GI50: 49.8 nM
  TGI: 859 nM
MCF7 breast
  GI50: 39.1 nM
  TGI: > 100000 nM
OVCAR-4 ovarian
  GI50: 123 nM
  TGI: > 100000 nM
A549 NSCLC
  GI50: 113 nM
  TGI: 19600 nM
HT29 colon
  GI50: 42.9 nM
  TGI: 387 nM
MDA-MB-231 breast
  GI50: 372 nM
  TGI: 19400 nM
SR leukemia
  GI50: 82.6 nM
  TGI: 55700 nM
M14 melanoma
  GI50: 61.2 nM
  TGI: 597 nM
HCC-2998 colon
  GI50: 184 nM
  TGI: 15700 nM
HCT-116 colon
  GI50: 50 nM
  TGI: 2880 nM
T-47D breast
  GI50: 26100 nM
  TGI: > 100000 nM
SF-295 CNS
  GI50: 31.9 nM
  TGI: 1520 nM
NCI-H460 lung
  GI50: 47.7 nM
  TGI: 5050 nM
BT-549 breast
  GI50: 305 nM
  TGI: 34000 nM
A498 renal
  GI50: 29.3 nM
  TGI: 1210 nM
NCI-H226 lung
  GI50: 175 nM
  TGI: 2560 nM
CCRF-CEM leukemia
  GI50: 217 nM
  TGI: > 100000 nM
SK-OV-3 ovarian
  GI50: 91.3 nM
  TGI: 19000 nM
SF-268 CNS
  GI50: 86.4 nM
  TGI: 21300 nM
COLO 205 colon
  GI50: 103 nM
  TGI: 464 nM
NCI-H23 lung
  GI50: 156 nM
  TGI: > 100000 nM
RXF 393 renal
  GI50: 48.2 nM
  TGI: 71000 nM
HS 578T breast
  GI50: 209 nM
  TGI: > 100000 nM
HL-60(TB) leukemia
  GI50: 67.1 nM
  TGI: 601 nM
MALME-3M melanoma
  GI50: 53.6 nM
  TGI: 85700 nM
SNB-19 CNS
  GI50: 141 nM
  TGI: > 100000 nM
LOX IMVI melanoma
  GI50: 81.4 nM
  TGI: 18800 nM
UO-31 renal
  GI50: 77.6 nM
  TGI: > 85300 nM
SN12C renal
  GI50: 450 nM
  TGI: > 88100 nM
OVCAR-3 ovarian
  GI50: 33.8 nM
  TGI: 135 nM
TK-10 renal
  GI50: 349 nM
  TGI: 83600 nM
SK-MEL-2 melanoma
  GI50: 59.5 nM
  TGI: 3240 nM
UACC-62 melanoma
  GI50: 48 nM
  TGI: 44500 nM
NCI/ADR-RES ovarian
  GI50: 39.7 nM
  TGI: 223 nM
MDA-MB-435
  GI50: 22.5 nM
  TGI: 62.3 nM
MOLT-4 leukemia
  GI50: 458 nM
  TGI: > 100000 nM
K-562 leukemia
  GI50: 53.2 nM
  TGI: > 67600 nM
EKVX NSCLC
  GI50: 694 nM
  TGI: > 100000 nM
U251 CNS
  GI50: 53.4 nM
  TGI: 15900 nM
HCT-15 colon
  GI50: 65.9 nM
  TGI: > 100000 nM
NCI-H522 lung
  GI50: 22.6 nM
  TGI: 69.3 nM
CAKI-1 renal
  GI50: 39.5 nM
  TGI: 35600 nM
KM12 colon
  GI50: 48.9 nM
  TGI: 5050 nM
